# Measurements from patent US20040241098A1, “Fungicidal mixture containing arylamidine derivatives” (priority 2001, published 2004).
# Tests used:
# [1] = test system: Wheat powdery mildew (Erysiphe graminis); assay: open field trial on wheat, powdery mildew; format: in vivo; conditions: natural contamination, measured 59 days after the application
# Experimental: (§1) They are intended to give an illustration of the efficacy of the compositions according to the invention on cereal diseases, in particular the compositions combining compound (A), having the chemical name N-ethyl-N-methyl-N′-[4-(chloro-3-trifluoromethylphénoxy)-2,5-xylyl]formamidine, with fungicidal compounds of the triazole and morpholine type. The trials on cereals were carried out in an open field.
# (§2) The objective of these field trials is therefore to test the efficacy of compounds (A) of formula (I), in particular N-ethyl-N-methyl-N′-[4-(chloro-3-trifluoromethylphenoxy)-2,5-xylyl]formamidine, alone at 125 g/ha and combined with 2 fungicides which are commercially available: fluquinconazole (100 g/ha) and fenpropimorph (750 g/ha) representing 2 classes of fungicidal compounds. Powdery mildew, brush rust and Septoria disease mycosphaerella graminicola (Septoria tritici) are the principal diseases treated.
# The products tested are therefore
# N-ethyl-N-methyl-N′-[4-(chloro-3-trifluorométhylphénoxy)-2,5-xylyl]-formamidine as compound (A) at 125 g/ha as an EC type formulation at 100 g/l, fluquinconazole as compound (B) at 100 g/ha as a formulation at 100 g/l, fenpropimorph as another compound (B) at 750 g/ha at 750 g/l, compound (A) and fluquinconazole combination at 125+100 g/ha as a fresh preparation, compound (A) and fenpropimorph combination at 125+750 g/ha, also as a fresh preparation, epoxyconazole+kresoxim-methyl at 125+125 g/ha on the 3 diseases, quinoxyfen at 150 g/ha on powdery mildew.
# (§3) Each trial comprises 3 repeats and untreated control plots are included in the experimental design in order to measure the severity of the diseases.
# All the trials are conducted under natural contamination conditions. The equipment for application is a constant compressed air pressure back sprayer. The spray nozzles have slits. […]
# [2] = test system: powdery mildew, brown rust and Septoria disease; assay: open field trials on cereals, conclusion over the 3 diseases; format: in vivo
# Experimental: as §1, §2, §3
# All the trials are conducted under natural contamination conditions. The equipment for application is a constant compressed air pressure back sprayer. The spray nozzles have slits.
# The efficacy results are obtained from controls carried out in the field: […]
SMILES,efficacy / persistence of activity on wheat powdery mildew [1],"effect on persistence of activity of compounds (B) ([2]; 3 major cereal diseases: powdery mildew, brown rust and Septoria disease)",persistence of activity ([2]; compound alone)
CC(Cc1ccc(C(C)(C)C)cc1)CN1C[C@@H](C)O[C@@H](C)C1 (some centres unmarked) [fenpropimorph],no longer have an activity,,
"O=c1c2cc(F)ccc2nc(-n2cncn2)n1-c1ccc(Cl)cc1Cl [Fluquinconazole, fluquinconazole]",no longer have an activity,,
"Fc1ccc(Oc2ccnc3cc(Cl)cc(Cl)c23)cc1 [Quinoxyfen, quinoxyfen]",low but significant efficacy,,
"CCN(C)C=Nc1cc(C)c(Oc2ccc(Cl)c(C(F)(F)F)c2)cc1C [compound (A), N-ethyl-N-methyl-N′-[4-(chloro-3-trifluoromethylphénoxy)-2,5-xylyl]formamidine]",,significantly improve the persistence of activity of compounds (B) fluquinconazole and fenpropimorph,not very persistent by itself
